Data set [1] deals with Protease XXIII: from Aspergillus oryzae (Enzyme A). The experiment in a line: Homogeneous aqueous enzymatic resolution (ester hydrolysis) with Enzyme A. The settings on record: for % e.e.: acid product.
Protocol: 10.0 millimole (mmol) of ibuprofen substrate ester 1 (the methyl sulfonate derivative) was dissolved in 100 ml of 0.2 M phosphate buffer of the appropriate cation (sodium or potassium, to be the same as the substrate counterion) at pH 7.0. 100 mg of enzyme A, as the
commercial preparation, was added directly to this solution, and the reaction mixture was capped and then shaken briefly until all the enzyme preparation had dispersed or dissolved. The reaction mixture was then allowed to stand at ambient temperature (20°-22° C.) for 20 hours. […] The combined organic layers were backwashed twice with one volume of water, once with one volume of saturated NaCl solution, and then dried over MgSO4.
Evaporation of the ether under reduced pressure left the resolved ibuprofen acid product; no other purification was performed. The optical rotation was measured in EtOH at a concentration c=1.0 for the ibuprofen acid product.
In this Example, 0.010 mol of ibuprofen ester 3 (the propyl sulfonate derivative) was dissolved in 100 ml 0.2 M sodium phosphate buffer at pH 7.8, and 150 mg of the commercial enzyme A preparation was added. The reaction was then handled as described for Examples 6.2.1.1-6.2.1.7.
In this Example, 0.010 mol of ibuprofen ester 2 (the ethyl sulfonate ester in the form of its potassium salt) were dissolved in 125 ml of 0.2 M sodium phosphate buffer at pH 7.0, and 150 mg of enzyme A was added to the reaction mixture as the commercially supplied preparation. The reaction was allowed to proceed for 18 hours, and the resulting product mixture was then worked-up as described above for Examples 6.2.1.1-6.2.1.7.
150 mg of Protease XXIII (A), as the commercially available preparation, was added to the reaction mixture, the reaction vessel was capped, and the entire heterogeneous reaction mixture was shaken in a wrist-action shaker for 18 hours. […] This mixture was then extracted twice with 200 ml of diethyl ether. The combined organic layers were backwashed twice with one volume of water, once with one volume of saturated NaCl, and the organic phase was then dried over MgSO4. Evaporation of the ether under reduced pressure left the resolved naproxen acid. No further purification was performed. The optical rotation of the product was measured in CHCl3 at a concentration c=1.0.
0.010 mol of naproxen ester 8 (the potassium salt of the ethyl sulfonate ester) was dispersed in 125 ml of 0.2 M sodium phosphate buffer at pH 7.8. 150 mg of enzyme A, as the commercially available preparation, were added, and the reaction handled as described in Example 6.2.1.1.
0.010 mol of ibuprofen ester 6 (the compound) were dissolved in 100 ml of 0.2 M sodium phosphate buffer at pH 7.0. 100 mg of enzyme A was added as the commercially available preparation, and the reaction handled as described above in Examples 6.2.1.1-6.2.1.7.
2.0 gm (0.0058 mole) of naproxen ester 9 (the sulfomethyl compound) was dissolved in 400 ml of 50 mM sodium phosphate buffer at pH 7.5. To the reaction were added 100 mg of Protease XXIII (A) as the commercially available preparation. After the enzyme had dissolved, the reaction mixture was incubated at 25 degrees for 16 hours. The reaction mixture was then acidified to pH 1-2 by the careful dropwise addition of concentrated HCl, and then it was extracted with ether (3×150 ml). The aqueous layer was retained. The combined organic layers were backwashed with water (2×100 ml), and these aqueous washings were added to the previously retained aqueous layer of the reaction. The ether layer was then washed once with 100 ml of brine, and dried over MgSO4.
The target of data set [2] is T1, Protease VIII: "Subtilopeptidase A" (subtilisin Carlsberg) (Enzyme B) (Bacillus licheniformis, UniProt P00780).
T1 sequence (P00780 106-379): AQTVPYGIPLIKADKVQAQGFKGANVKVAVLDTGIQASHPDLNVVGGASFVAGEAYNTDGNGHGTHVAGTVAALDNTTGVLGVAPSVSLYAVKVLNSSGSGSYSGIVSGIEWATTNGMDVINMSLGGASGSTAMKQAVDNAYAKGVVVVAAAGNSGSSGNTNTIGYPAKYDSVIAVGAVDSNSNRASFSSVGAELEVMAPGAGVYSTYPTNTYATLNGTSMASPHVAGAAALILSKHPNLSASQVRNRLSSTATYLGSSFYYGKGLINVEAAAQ
The experiment in a line: Homogeneous aqueous enzymatic resolution (ester hydrolysis) with Enzyme B. Format: biochemical. The settings on record: for % e.e.: acid product.

The target in data set [3] is T2, Protease XXVII: "Nagarse" (Enzyme D) (Bacillus amyloliquefaciens, UniProt P00782).
T2 sequence (P00782 108-382): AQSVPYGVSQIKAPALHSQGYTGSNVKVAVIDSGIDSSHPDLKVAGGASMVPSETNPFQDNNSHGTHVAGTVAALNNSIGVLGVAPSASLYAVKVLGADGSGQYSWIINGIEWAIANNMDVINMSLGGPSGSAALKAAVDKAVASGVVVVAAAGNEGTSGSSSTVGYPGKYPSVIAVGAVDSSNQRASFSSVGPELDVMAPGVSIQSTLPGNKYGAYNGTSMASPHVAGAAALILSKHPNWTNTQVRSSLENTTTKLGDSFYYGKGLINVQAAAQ
As to the kind of experiment: Homogeneous aqueous enzymatic resolution (ester hydrolysis) with Enzyme D. It is filed as biochemical. The settings on record: 150 mg enzyme D, 0.010 mol ester in 100 ml 0.2 M sodium phosphate buffer pH 7.8.

For a further data set, the system named is Pig Liver Esterase (E). The experiment in a line: Homogeneous aqueous enzymatic resolution (ester hydrolysis) with Enzyme E. It is filed as biochemical. The note with it: 30 mg Pig Liver Esterase (E), 0.010 mol ester in 100 ml 0.2 M sodium phosphate buffer pH 7.8.
Data set [4] addresses T3, Protease XVI: from Bacillus subtilis (Enzyme C) (Bacillus subtilis, UniProt P04189).
T3 sequence (P04189 107-381): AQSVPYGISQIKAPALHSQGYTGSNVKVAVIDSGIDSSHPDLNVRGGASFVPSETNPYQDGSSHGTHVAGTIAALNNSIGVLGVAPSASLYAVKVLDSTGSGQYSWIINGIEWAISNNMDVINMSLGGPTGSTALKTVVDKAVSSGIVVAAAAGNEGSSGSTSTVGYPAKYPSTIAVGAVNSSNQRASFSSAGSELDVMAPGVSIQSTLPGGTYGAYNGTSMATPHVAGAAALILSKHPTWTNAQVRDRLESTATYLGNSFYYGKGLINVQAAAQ
As to the kind of experiment: Homogeneous aqueous enzymatic resolution (ester hydrolysis) with Enzyme C. It is filed as biochemical. The settings on record: acid product; 100 mg enzyme C, 10 mmol ester in 100 ml 0.2 M phosphate buffer pH 7.0, 20-22° C., 20 hours.

For data set [5], the system named is protease Prozyme 6 (Enzyme F). As to the kind of experiment: Homogeneous aqueous enzymatic resolution (ester hydrolysis) with Enzyme F. It is filed as biochemical, Asperqillus oryzae. The settings on record: 100 mg Prozyme 6 (F), 10 mmol ester in 100 ml 0.2 M buffer pH 7.0, 25° C., 18 hours. How it is done: (Prozyme 6) (F) added. The enzymatic reaction mixtures were capped and briefly shaken until all the substrate had dissolved, and the enzyme had completely dissolved or dispersed. […] Evaporation of the ether left a white solid. Rotations were measured at c=1 in CHCl3.
The enzymatic reaction mixtures were capped and briefly shaken until all the substrate had dissolved, and the enzyme had completely dissolved or dispersed. […] Evaporation of the ether left a white solid. Rotations were measured at c=1 in CHCl3.
The reaction was started by adding 100 mg of the protease (F) from the fungus Asperqillus oryzae (from Amano Enzyme Corporation, Prozyme 6, 60,000 units per mg of solid).
After 20 hours at room temperature, the solution was acidified to pH 2 and extracted with 3 volumes of diethyl ether. The aqueous phase was saved for subsequent workup. The ether phase was washed with two volumes of distilled water and then one volume of saturated sodium chloride, and then it was dried over MgSO4 and subsequently evaporated to dryness. The resolved ibuprofen product recovered was 930 mg of white powder, indicating 45% conversion of racemic ester to acid. The optical rotation was -0.580° (measured at c=1 in ethanol), indicating the R isomer of ibuprofen.
35 mg of protease Enzyme F, as the commercial preparation Prozyme 6, were added to the aqueous solution. The reaction flask was capped, and briefly shaken until all the enzyme had dissolved or dispersed. […] The resulting mixture was diluted with one volume of water and was extracted with diethyl ether (2 times 200 ml). The ether layers were combined and backwashed with water (2 times 200 ml), saturated NaCl solution (200 ml), and then dried over MgSO4.
In this control run, a 0.5 M ester solution of (1) was prepared in 325 ml of 0.1 M sodium phosphate buffer (pH 7.0). The reaction was started by adding 3 gm of the above enzyme (F). The pH was controlled at 7.0 with 8.22 M sodium hydroxide. After 6.49 hours at 30° C., 6.63 ml of hydroxide were added, indicating 37.7% conversion. […]

The conditions of data set [6]: cited from earlier work.
Where [7] appears, read: 100 mg enzyme A, 10.0 mmol ester in 100 ml 0.2 M buffer pH 7.0, 25° C., 18 hours.
The mark [8] stands for this setting: 100 mg enzyme B, 10.0 mmol ester in 100 ml 0.2 M Na3 PO4 buffer pH 7.0, 25° C., 18 hours.
The mark [9] stands for this setting: 100 mg enzyme A, 10 mmol ester in 100 ml 0.2 M phosphate buffer pH 7.0, 20-22° C., 20 hours.
[10] abbreviates: 150 mg enzyme A, 0.010 mol ester in 100 ml 0.2 M sodium phosphate buffer pH 7.8.
[11] abbreviates: 150 mg enzyme B, 0.010 mol ester in 100 ml 0.2 M sodium phosphate buffer pH 7.8.
The mark [12] stands for this setting: 100 mg enzyme B, 10 mmol ester in 100 ml 0.2 M phosphate buffer pH 7.0, 20-22° C., 20 hours.
[13] abbreviates: 100 mg Protease XXIII (A), pH 7.5, 25 degrees, 16 hours.

Structures can show the parent of a compound that is named as a salt.

Regarding `CC(CSC(=O)c1ccccc1)C(=O)OCS(=O)(=O)O` (racemic) [Compound 16, Potassium Salt of the Sulfomethyl Ester of (+)-S-3-Benzoylthio-2-methylpropanoic Acid], in data set [1] (setting [7]), the “% CONVERSION” value came out at 53% and the “% e.e.” value stood at 3%. Besides, in data set [2] (setting [8]), the “% CONVERSION” value is given as 26% and the “% e.e.” value turned out to be 10%.
For the compound `CC(C)Cc1ccc(C(C)C(=O)OCCS(=O)(=O)O)cc1` (centres unmarked) [Compound 2, Sodium Salt of 2-Sulfoethyl Ester of 2-(4-Isobutylphenyl)propanoic Acid], in data set [1] (setting [9]), the “% CONVERSION” value is reported as 22.3% and the “% e.e.” value is reported as 93.3%.
For the compound `CC(C)Cc1ccc(C(C)C(=O)OCCCS(=O)(=O)O)cc1` (centres unmarked) [Compound 3, Potassium Salt of 3-Sulfopropyl Ester of 2-(4-Isobutylphenyl)propanoic Acid], the “% CONVERSION” value came out at 50.0% in data set [1] (setting [9]); 47.1% in data set [1] (setting [10]); 32.0% in data set [3]; 36.4% in data set [2] (setting [11]); 12.1% with Pig Liver Esterase (E). Also, the “conversion of the racemic ester to acid” value in data set [1] (1.00 gm protease (A), about 1 M ester, 40 ml, pH 7.0, room temperature, 23.9 hours, by NaOH titration) was determined as 29%. For the same compound, the “% e.e.” value in data set [1] (setting [9]) is 84.2%; in data set [1] (setting [10]), 97.7%; in data set [3] (acid product), 91.0%; in data set [2] (setting [11]), 98.6%; with Pig Liver Esterase (E) (acid product), 88.0%.
As to `CC(C)Cc1ccc(C(C)C(=O)OCCCCS(=O)(=O)O)cc1` (centres unmarked) [Compound 4, Potassium Salt of 4-Sulfobutyl Ester of 2-(4-Isobutylphenyl)propanoic Acid], the “% CONVERSION” value was 43.2% in data set [1] (setting [9]) and 20.0% in data set [2] (setting [12]). The “% e.e.” value stood at 97.4% in data set [1] (setting [9]), 61.7% in data set [4] and 92.1% in data set [2] (setting [12]).
Turning to `CC(C)Cc1ccc(C(C)C(=O)OCCOP(=O)(O)O)cc1` (centres unmarked) [Compound 5, Disodium Salt of the Phosphoric Acid Ester of the 2-Hydroxyethyl Ester of 2-(4-Isobutylphenyl)propanoic Acid], the “% e.e.” value in data set [4] is 75.6%.
For the compound `CC(C)Cc1ccc(C(C)C(=O)OCCCOS(=O)(=O)O)cc1` (centres unmarked) [Compound 6, Potassium Salt of the Sulfuric Acid Ester of 3-Hydroxypropyl Ester of 2-(4-Isobutylphenyl)propanoic Acid], in data set [1] (setting [9]), the “% CONVERSION” value was 24.3% and the “% e.e.” value worked out at 96.5%.
`COc1ccc2cc(C(C)C(=O)OCS(=O)(=O)O)ccc2c1` (centres unmarked) [Compound 9, Sodium Salt of Sulfomethyl Ester of 2-(6-Methoxy-2-naphthyl)propanoic Acid]: the “conversion (enzymatic hydrolysis)” value in data set [1] (100 mg Protease XXIII (A), 2.0 gm ester in 400 ml 50 mM sodium phosphate buffer pH 7.5, 25 degrees, 16 hours) is on record as 18%. Further, in data set [1] (setting [13]), the “enantiomeric excess of R isomer (acid product)” value is recorded as 61.2% and the “enantiomeric excess of S isomer (acid from remaining ester after hydrolysis at pH 12)” value amounted to 45.5%.
In the case of `CC(C)Cc1ccc(C(C)C(=O)OCC[N+](C)(C)C)cc1` (centres unmarked) [Compound 10, Iodide Salt of 2-(N,N,N-Trimethylammonium)ethyl Ester of 2-(4-Isobutylphenyl)propanoic Acid], in data set [1] (setting [9]), the “% CONVERSION” value was found to be 30.1% and the “% e.e.” value is listed as more than 99%.
As for `COc1ccc2cc(C(C)C(=O)OCC[N+](C)(C)C)ccc2c1` (centres unmarked) [Compound 11, Methyl Sulfate Salt of 2-(N,N,N-Trimethylammonium)ethyl Ester of 2-(6-Methoxy-2-naphthyl)propanoic Acid], the “% e.e.” value in data set [5] (acid product) was 34.0%.
Consider `COc1ccc2cc(C(C)C(=O)OCCC[N+](C)(C)C)ccc2c1` (centres unmarked) [Compound 12, Methyl Sulfate Salt of 3-(N,N,N-Trimethylammonium)propyl Ester of 2-(6-Methoxy-2-naphthyl)propanoic Acid], for which the “% CONVERSION” value in data set [5] is given as 34.0%.
Consider `CC(Cl)C(=O)OCCCS(=O)(=O)O` (centres unmarked) [Compound 13, Potassium Salt of 3-Sulfopropyl Ester of 2-Chloropropanoic Acid], for which, in data set [2] (20 mg subtilisin protease (B), 8.05 gm ester in 300 ml 0.1 M potassium phosphate buffer pH 7.0), the “conversion as measured by titrimetry (reaction stopped)” value is 25%.
On to `O=C1CCC(N2C(=O)c3ccccc3C2=O)C(=O)N1` [D-enantiomer of thalidomide, thalidomide], for which the sedative use entry in data set [6] (prescribed for the control of morning sickness during pregnancy) is “safe and effective sedative”.
For the compound `O=C1CC[C@H](N2C(=O)c3ccccc3C2=O)C(=O)N1` [L-thalidomide], in data set [6] (in vivo), the teratogenicity result is recorded as “potent teratogen”.

The values above are taken from patent US5057427A, “Method for resolution of stereoisomers” (Sepracor, Inc., priority 1988, dated 1991).
